Measured values published in US5801144A, “Use of a compound for the manufacture of a medicament for the treatment of HIV infection” (priority 1992, dated 1998).
“Also recorded” adds a separate entry of the source. Where two headings read alike, the source gives them in different places.

Assays:
[1] = system: HIV-2; assay: Giant cell / cytopathic effect on co-cultivation of HIV-2 chronically infected cells with uninfected cells; format: cell-based; conditions: co-cultivation in the presence of the drugs, within 24 hours
[2] = system: NDK strain of HIV-1; assay: Giant cell assay: co-cultivation of HIV-1 chronically infected Molt 4 cells with non-infected Molt 4 cells; format: cell-based
Protocol: Method: A clone of the leukaemia T-cell line Molt 4, which expresses a very high level of CD4, was selected. This was infected with the highly cytopathic NDK strain of HIV-1^6 and a clone which is chronically infected with the virus but which readily replicates was selected. When these HIV-infected cells w ere co-cultivated with non-infected Molt 4 cells at a ratio of 100 non-infected:1 infected cell, very large giant cells were formed within 24 hours.
(§1) The effects of serum from healthy HIV-1 infected individuals and AIDS patients on giant cell formation was also examined. In addition the level of cytotoxicity and anti-HIV-1 activity of these substances was tested in an anti-HIV assay system which has been previously described^7. This enabled us to establish the anti-viral activity and cytotoxicity in parallel and to compare it to the effects of AZT on virus inhibition and cell division.

[3] = system: CD4; assay: CD4 expression on non-infected cells (flow cytometry); format: cell-based; conditions: 1 and 4 μg/ml, 3 days
Protocol: (§2) Each cell preparation was kept separately at a concentration of 1 and 4 μg/ml of each drug for 3 days. Infected and uninfected cells were suspended at a concentration of 10^6 /ml in phosphate buffered saline (PBS) containing 0.1% sodium azide. Triplicate aliquots of 100 μl were incubated separately with 20 μl Leu-3a (FITC) (Ortho (Becton Dickinson UK Ltd) or with 10 μl OKT4a (FITC) Diagnostic Systems). After 20 min at 22° C. the cells were washed twice with PBS and resuspended in 0.51% paraformaldehyde/PBS (Sigma). The preparations were fixed overnight at 4° C. and subsequently analysed by flow cytometry (FACScan, Becton Dickinson UK Ltd). The median channel fluorescence was recorded for each sample.

[4] = system: HIV-1; assay: Anti-HIV assay system (HIV-1 replication, cytotoxicity in parallel); format: cell-based
Protocol: as §1

[5] = system: HIV-1; conditions: drug-containing medium replaced with growth medium alone, one week
Protocol: Method: Culture fluid was collected from:
1. chronically infected cells grown in growth medium;
3. chronically infected cells grown in 10 μg/ml of FK506 and for 1 week after removal of compound;
Each culture was titrated at serial ten-fold dilutions. Each dilution was used to infect Molt 4 cells in duplicate. The end point was recorded after 10 days.

[6] = system: CD4; assay: CD4 expression on HIV-1 chronically infected cells (flow cytometry); format: cell-based; conditions: 1 and 4 μg/ml, 3 days
Protocol: as §2

[7] = system: non-infected Molt 4 cells; assay: Growth-rate of non-infected T-cells; format: cell-based
Protocol: (§3) Method: Molt 4 cells and the clone of the same cells, chronically infected with HIV-1, were seeded separately at an approximate concentration of 5×10^4 cells/ml. Five separate cultures of each of the two cell populations were seeded. […] At 24 hour intervals samples were taken for cell counting. Feeding with or without the corresponding chemical was done after the fourth day. AZT was also used in parallel.

[8] = system: Molt 4 cells chronically infected with HIV-1; assay: Growth-rate of chronically infected T-cells; format: cell-based
Protocol: as §3

C=CC[C@@H]1/C=C(\C)C[C@H](C)C[C@H](OC)[C@H]2O[C@@](O)(C(=O)C(=O)N3CCCC[C@H]3C(=O)O[C@H](/C(C)=C/[C@@H]3CC[C@@H](O)[C@H](OC)C3)[C@H](C)[C@@H](O)CC1=O)[C@H](C)C[C@@H]2OC [FK506, 16-Allyl-1, 14-dihydroxy-12-[2-(4-hydroxy-3-methoxycyclohexyl)-1-methylvinyl]-23,25-dimethoxy-13,19,21,27-tetramethyl-11,28-dioxa-4-azatricyclo-[22,3,1,0^4,9]octacos-18-ene-2,3,10,16-tetrone]
delay of cytopathic effect / giant cell formation (anti-HIV-2 activity) [1]: delay of the cytopathic effect; also recorded: delay in the formation of giant cells
delay of cytopathic effect / giant cell formation (anti-HIV-1 activity) ([2]; HIV-1, co-cultivation in the presence of the drugs, within 24 hours): delay of the cytopathic effect; also recorded: delay in the formation of giant cells
giant cell formation after drug pre-treatment of infected cells ([2]; chronically infected cells cultured one week with drug, washed, co-cultivated without drug): a few small giant cells could be seen during the first 24 hours
onset of cytopathic effects, in particular giant cell formation ([2]; chronically infected cells grown with drug for five days and then washed): inhibition of and a delay in the onset of cytopathic effects
giant cell formation ([2]; co-cultured in the presence of 10 μg/ml, examined after 24 hours): only a few small giant cells
CD4 expression on uninfected Molt 4 cells [3]: expressed a high level of CD4
HIV-1 replication at 1 μg ([4]; at 1 μg): only a partial decrease
antiviral activity at non-toxic concentrations ([4]; non-toxic concentrations): marginal antiviral activity
inhibition of HIV-1 replication (comparison with AZT) ([4]; various concentrations, FIG. 1): far lower than that of AZT
production of infectious HIV-1 after drug removal [5]: increase in the production of infectious HIV-1 to the levels which preceded the drug treatment
CD4 expression on chronically HIV-1 infected Molt 4 cells [6]: does not seem to be affected
cell division of uninfected cells at 4 μg/ml [7]: did not appear to slow cell division
growth of uninfected cells, first five days [7]: did not affect the growth of uninfected cells
number of uninfected cells after day five at 10 μg/ml [7]: only a marginal increase in the number of cells
effect on growth / replication of HIV-1 chronically infected cells [8]: inhibited the replication; also recorded: inhibit the growth of the chronically infected cells
cell division of chronically infected cells at 4 μg/ml ([8]; 4 μg/ml): significant reduction in cell division
number of chronically infected cells at 10 μg/ml ([8]; 10 μg/ml, after a week in culture): only a marginal increase in the number of cells
effect on growth / replication of HIV-1 chronically infected cells ([8]; listed as FK): significantly inhibited the replication
